Where two headings read alike, the source gives them in different places. Blank lines part the entries; values can stand above or below the molecule they belong to.
How the values were obtained:
[1] = Accelerated stability test of solid; type: physicochemical; conditions: for Purity: HPLC area purity
Excerpt: Samples were respectively taken at 1 month, 2 months and 3 months to test the solid chemical purity (HPLC area purity) and crystal form.

[2] = Solid stability test, influence factors (high temperature, high humidity); type: physicochemical
Description: The sample placed under a high temperature condition was sealed and left to stand in a stability test chamber at 60° C. After 10 days, the sample was taken and tested for solid purity and crystal form. The sample placed under a high humidity condition was left to stand at room temperature and 92.5% RH humidity (the mouth of the sample bottle was wrapped with a layer of sealing film and 15˜20 small holes were evenly punched in the sealing film), and the samples were taken and tested for solid purity and crystal form after 5 days/10 days, respectively.

[3] = Pharmacokinetic test in mice; type: in vivo; conditions: mouse, plasma; PO (10 mL/kg [sic]) vs IV 3 mg/kg, male CD-1 mice; read-out: Bioavailability F %
Description: The drug concentrations of the compounds in plasma at different time points were determined by LC/MS/MS method after single intravenous (IV) and intragastric (PO) administration of the compounds to 7-9 week old male CD-1 mice as the test animals. The pharmacokinetic behaviors of the compounds of the present invention in mice were studied and pharmacokinetic properties thereof were evaluated.
The compounds were prepared into clear solutions using 5% DMSO+10% solutol+85% water as a solvent for administration in IV (intravenous injection) and PO (gavage) groups. The administration dosage of each compound was 3 mg/kg for the IV group and […] for the PO group.

[4] = Cassette pharmacokinetic test in mice (plasma, brain, CSF); type: in vivo, male CD-1 mice
Description: The pharmacokinetic behaviors of the compounds of the present invention in mice were studied and the pharmacokinetic properties thereof were evaluated.

[5] = Room temperature/92.5% RH, 5 days
[6] = Room temperature/92.5% RH, 10 days
[7] = PO @ 3 mpk, cassette, brain, 2 h
[8] = mouse, plasma, 1 mg/kg, IV @ 1 mpk, cassette, male CD-1 mice, read-out: Apparent Distribution Volume Vd
[9] = mouse, plasma, 1 mg/kg, IV @ 1 mpk, cassette, male CD-1 mice, read-out: Area under Curve AUC0-inf
[10] = mouse, plasma, 1 mg/kg, IV @ 1 mpk, cassette, male CD-1 mice, read-out: Half-life T1/2 (converted)
[11] = mouse, plasma, 1 mg/kg, IV @ 1 mpk, cassette, male CD-1 mice, read-out: Initial Concentration C0
[12] = mouse, plasma, 3 mg/kg, PO @ 3 mpk vs IV @ 1 mpk, cassette, male CD-1 mice, read-out: Bioavailability F %
[13] = mouse, plasma, 3 mg/kg, PO @ 3 mpk, cassette, male CD-1 mice, read-out: Area under Curve AUC0-inf
[14] = mouse, plasma, 3 mg/kg, PO @ 3 mpk, cassette, male CD-1 mice, read-out: Peak Concentration Cmax
[15] = mouse, plasma, 3 mg/kg, PO @ 3 mpk, cassette, male CD-1 mice, read-out: Time to Peak Tmax
[16] = male, CD-1, mouse, in vivo, iv, 1 mg/kg
[17] = male, CD-1, mouse, in vivo, po, 3 mg/kg

- Relative Purity* ([1]; 40° C./75% RH, 1 month): 100.0
- Purity ([1]; 40° C./75% RH, 1 month): 100.0
- Relative Purity* ([1]; 40° C./75% RH, 2 months): 100.0
- Purity ([1]; 40° C./75% RH, 2 months): 100.0
- Relative Purity* ([1]; 40° C./75% RH, 3 months): 100.0
- Purity ([1]; 40° C./75% RH, 3 months): 100.0
- Relative Purity* ([1]; 60° C./75% RH, 1 month): 99.9
- Purity ([1]; 60° C./75% RH, 1 month): 99.9
- Relative Purity* ([1]; 60° C./75% RH, 2 months): 100.0
- Purity ([1]; 60° C./75% RH, 2 months): 100.0
- Relative Purity* ([1]; 60° C./75% RH, 3 months): 100.0
- Purity ([1]; 60° C./75% RH, 3 months): 100.0
- Test Results Purity ([2]; 60° C, sealed, 10 days): 100.0%
- Test Results Crystal Form ([2]; 60° C, sealed, 10 days, XRPD): Crystal Form C
- Test Results Relative Purity* ([2]; 60° C, sealed, 10 days, purity of stability sample/purity of starting sample x100%): 100.0%
- Test Results Crystal Form [2, 5]: Crystal Form C
- Test Results Purity [2, 5]: 100.0%
- Test Results Relative Purity* [2, 5]: 100.0%
- Test Results Crystal Form [2, 6]: Crystal Form C
- Test Results Purity [2, 6]: 100.0%
- Test Results Relative Purity* [2, 6]: 100.0%
SMILES: O=C1NC2(CC2)COc2ncc(F)cc2[C@H]2CCON2c2ccn3ncc1c3n2

- bioavailability [3]: 28%
- Drug Concentration in Cerebrospinal Fluid at 0.5 h ([4]; PO @ 3 mpk, cassette, CSF): 15 nmol/kg
- Drug Concentration in Cerebrospinal Fluid at 2 h ([4]; PO @ 3 mpk, cassette, CSF, 2 h): 3 nmol/kg
- Drug Concentration in Brain at 0.5 h ([4]; PO @ 3 mpk, cassette, brain): 40 nmol/kg
- Drug Concentration in Brain at 2 h [4, 7]: 20 nmol/kg
- Vd [4, 8]: 1.57 L/kg
- AUC(0-inf) [4, 9]: 1.72 µM·h
- half-life [4, 10]: 72.6 min
- C0 [4, 11]: 2380 nM
- bioavailability [4, 12]: 51%
- AUC(0-inf) [4, 13]: 2.72 µM·h
- Cmax [4, 14]: 1350 nM
- Tmax [4, 15]: 30 min
SMILES: O=C(Nc1cnn2ccc(N3CCC[C@@H]3c3cc(F)ccc3F)nc12)N1CC[C@H](O)C1 [LOXO-101, Larotrectinib]

- bioavailability [3]: 74%
SMILES: C[C@@H]1CCc2ncc(F)cc2[C@H]2CCCN2c2ccn3ncc(c3n2)C(=O)N1 [LOXO-195, reference compound]

- AUC(0-inf) [4, 16]: 3.77 µM·h
- C0 [4, 16]: 2810 nM
- Vd [4, 16]: 1.24 L/kg
- half-life [4, 16]: 116 min
- AUC(0-inf) [4, 17]: 3.26 µM·h
- Cmax [4, 17]: 586 nM
- Tmax [4, 17]: 45 min
- bioavailability [4, 17]: 23%
- Drug Concentration in Brain at 2 h ([4]; male, CD-1, mouse, in vivo, po, 3 mg/kg, 2 h): 30 nmol/kg
SMILES: CN1CCN(c2ccc(C(=O)Nc3n[nH]c4ccc(Cc5cc(F)cc(F)c5)cc34)c(NC3CCOCC3)c2)CC1 [RXDX-101, Entrectinib]

- Drug Concentration in Cerebrospinal Fluid at 0.5 h ([4]; PO @ 3 mpk, cassette, CSF): 8 nmol/kg
- Drug Concentration in Brain at 0.5 h ([4]; PO @ 3 mpk, cassette, brain): 50 nmol/kg
- Drug Concentration in Brain at 2 h [4, 7]: 41 nmol/kg
- Vd [4, 8]: 2.63 L/kg
- AUC(0-inf) [4, 9]: 2.86 µM·h
- half-life [4, 10]: 221 min
- C0 [4, 11]: 2250 nM
- bioavailability [4, 12]: 64%
- AUC(0-inf) [4, 13]: 5.49 µM·h
- Cmax [4, 14]: 1540 nM
- Tmax [4, 15]: 45 min
SMILES: C[C@H]1CNC(=O)c2cnn3ccc(nc23)N[C@H](C)c2cc(F)ccc2O1 [TPX-0005]

From US20220289765A1, “CRYSTAL OF CARCINOGENIC FUSED KINASE INHIBITOR AND APPLICATIONS THEREOF” (Simcere Pharmaceutical Co., Ltd., priority 2019, published 2022)
